The results in this text go back to ChEMBL document CHEMBL5150068, “Structure-Based Design of Tropane Derivatives as a Novel Series of CCR5 Antagonists with Broad-Spectrum Anti-HIV-1 Activities and Improved Oral Bioavailability” (J Med Chem, 2022).

Each structure is given as a SMILES string. “And” between values parts separate entries of the source, which are not always exact repeats. Equal values may be shown once.

The test system of series [1] is Human immunodeficiency virus 1. Put plainly: Antiviral activity against HIV-1 Ba-L infected in human TZM-bl cells measured after 48 hrs incubation by luciferase based analysis. To be noted: Human immunodeficiency virus 1, Ba-L. The series is classed as functional, organism-based.
Series [2] is described as follows: Cytotoxicity against human TZM-bl cells incubated for 48 hrs by MTT assay. The series is classed as toxicity, cell-based. (Tetrazolium dyes change colour on reduction, which living cells bring about.)
For series [3], the target named is C-C chemokine receptor type 5 (Homo sapiens, UniProt P51681). Put plainly: Antagonist activity at CCR5 (unknown origin) expressed in HEK293 cells co-expressing Galpha16 assessed as intracellular calcium change incubated for 15 mins by Fluo-4 AM calcium flux assay. The series is classed as functional, cell-based. A general note: A change in cytosolic calcium serves as a functional read-out for many receptors and channels.
Chain of C-C chemokine receptor type 5 (P51681 whole entry): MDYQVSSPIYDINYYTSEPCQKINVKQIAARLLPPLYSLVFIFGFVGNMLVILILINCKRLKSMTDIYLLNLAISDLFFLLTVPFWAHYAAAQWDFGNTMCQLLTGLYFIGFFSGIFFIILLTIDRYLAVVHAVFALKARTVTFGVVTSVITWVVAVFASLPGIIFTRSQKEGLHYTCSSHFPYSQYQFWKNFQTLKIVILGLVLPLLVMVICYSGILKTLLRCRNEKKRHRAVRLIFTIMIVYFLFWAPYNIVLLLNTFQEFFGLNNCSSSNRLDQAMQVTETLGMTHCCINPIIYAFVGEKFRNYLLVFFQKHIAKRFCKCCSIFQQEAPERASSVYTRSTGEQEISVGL

A further series can be described thus: in vitro. To be noted: human, TZM-bl cells.
Series [4] deals with Human immunodeficiency virus 1. As to the kind of experiment: Antiviral activity against HIV-1 YU-2 infected in human TZM-bl cells measured after 48 hrs incubation by luciferase based analysis. The series is classed as functional, organism-based.
Series [5] has as its system Human immunodeficiency virus 1. Put plainly: Antiviral activity against HIV-1 YU-2 (G140S/Q148H) infected in human TZM-bl cells measured after 48 hrs incubation by luciferase based analysis. The series is classed as functional, organism-based. To be noted: Human immunodeficiency virus 1, YU-2 (G140S/Q148H).
Series [6] concerns Human immunodeficiency virus 1. As to the kind of experiment: Antiviral activity against HIV-1 KM018 clinical isolate infected in human PBMC measured after 48 hrs incubation by luciferase based analysis. The following applies: Human immunodeficiency virus 1, KM018, PBMC. The series is classed as functional, organism-based.
For series [7], the system named is Human immunodeficiency virus 1. Put plainly: Antiviral activity against HIV-1 KIZ001 clinical isolate infected in human PBMC measured after 48 hrs incubation by luciferase based analysis. The series is classed as functional, organism-based. To be noted: Human immunodeficiency virus 1, KIZ001, PBMC.
The subject of series [8] is Human immunodeficiency virus 1. Put plainly: Antiviral activity against HIV-1 SF162 infected in human TZM-bl cells measured after 48 hrs incubation by luciferase based analysis. The series is classed as functional, organism-based. The following applies: Human immunodeficiency virus 1, SF162, TZM-bl.
Series [9] deals with Human immunodeficiency virus 1. As to the kind of experiment: Antiviral activity against HIV-1 KIZ006 clinical isolate infected in human PBMC measured after 48 hrs incubation by luciferase based analysis. Format: functional, organism-based. The following applies: Human immunodeficiency virus 1, KIZ006, PBMC.
Series [10] relates to Human immunodeficiency virus 1. As to the kind of experiment: Antiviral activity against HIV-1 Ba-L infected in human HOS-CD4-CCR5 cells measured after 48 hrs incubation by ELISA based p24 antigen assay. Format: functional, organism-based. The following applies: Human immunodeficiency virus 1, Ba-L. In general terms: An ELISA detects its analyte on a solid surface through an enzyme-linked reagent.

Series [11] relates to Human immunodeficiency virus 1. As to the kind of experiment: Antiviral activity against HIV-1 Ba-L infected in human PM1 cells measured after 48 hrs incubation by ELISA based p24 antigen assay. Format: functional, organism-based. To be noted: Human immunodeficiency virus 1, Ba-L, PM1, 48 h.
Series [12] has as its system Human immunodeficiency virus 1. Put plainly: Antiviral activity against HIV-1 IIIB infected in human TZM-bl cells measured after 48 hrs incubation by luciferase based analysis. To be noted: Human immunodeficiency virus 1, IIIB. Format: functional, organism-based.
Setting [13] is: Human immunodeficiency virus 1, YU-2, TZM-bl, 48 h.

Description for in vitro: Therapeutic index, ratio of CC50 for human TZM-bl cells to EC50 for antiviral activity against HIV-1 Ba-L

As a reminder, the EC50 is the concentration at which the effect is half-maximal. A low value points to a more potent agent. The CC50 is the concentration at which the toxic effect on the cells reaches its halfway point. For orientation: IC50 means the concentration that gives 50% inhibition. In turn, `Cc1ccc([C@H](CCN2[C@@H]3CC[C@H]2C[C@H](n2c(C)nnc2C(C)C)C3)NC(=O)Cn2cnnn2)s1` showed a concentration giving a half-maximal response (EC50) in series [1] of more than 50000 nM. For the same compound, in [2], the CC50 at 48 h was more than 200000 nM. In addition, in series [3], the IC50 is 45.1 nM.
The like results for `Cc1ccc([C@H](CCN2[C@@H]3CC[C@H]2C[C@H](n2c(C)nnc2C(C)C)C3)NC(=O)CC#N)s1` were, in that order, more than 50000 nM, more than 200000 nM and 72.7 nM.
As to `Cc1ccc([C@H](CCN2[C@@H]3CC[C@H]2C[C@H](n2c(C)nnc2C(C)C)C3)NC(=O)C2CCN(S(C)(=O)=O)CC2)s1`, the EC50 in series [1] stood at 4540 nM. This compound gave a cytotoxic concentration (CC50) at 48 h in [2] of more than 200000 nM. In addition, the half-maximal inhibitory concentration (IC50) in [3] was determined as 7.99 nM. In addition, in the series “in vitro”, the selectivity ratio was more than 44.
Compound `Cc1nnc(C(C)C)n1[C@@H]1C[C@H]2CC[C@@H](C1)N2CC[C@H](NC(=O)C1CCC(F)(F)CC1)c1cscn1` showed a 50% effective concentration (EC50) in series [1] of 78 nM. This compound had a 50% cytotoxic concentration (CC50) at 48 h in series [2] of more than 200000 nM. The concentration for half-maximal inhibition (IC50) in series [3] was found to be 67.4 nM. Besides, the selectivity ratio in the series “in vitro” stood at 2560.
On to `COC(=O)C1CCC(C(=O)N[C@@H](CCN2[C@@H]3CC[C@H]2C[C@H](n2c(C)nnc2C(C)C)C3)c2cccs2)CC1` (stereo partly specified), for which, in series [2], the CC50 at 48 h is more than 200000 nM. Further, the IC50 in series [3] is 11.8 nM. Further, in [4] (setting [13]), the EC50 came out at 9 nM. For the same compound, in “in vitro”, the selectivity ratio is more than 22200.
Compound `CC(=O)N[C@@H](CCN1C2CCC1CC(n1c(C)nc3c1CCN(C(=O)C(C)C)C3)C2)c1cccc(F)c1` (stereo partly specified) displayed an EC50 in series [5] of 2.3 nM. In addition, in [3], the IC50 stood at 18.9 nM.
For the compound `CNS(=O)(=O)c1cccc(C(=O)N[C@@H](CCN2[C@@H]3CC[C@H]2C[C@H](n2c(C)nnc2C(C)C)C3)c2cccs2)c1`, in series [1], the concentration giving a half-maximal response (EC50) stood at 4630 nM. The compound further gave a CC50 at 48 h in series [2] of more than 200000 nM. In series [3], the IC50 was 31.9 nM. For the same compound, in the series “in vitro”, the selectivity ratio is more than 43.2.
For `Cc1nnc(C(C)C)n1[C@@H]1C[C@H]2CC[C@@H](C1)N2CC[C@H](NC(=O)C1CCCC1)c1ccsc1Cl`, in that order: 910 nM, more than 200000 nM, 4.36 nM and more than 219.
On to `Cc1nnc(C(C)C)n1[C@H]1C[C@H]2CC[C@@H](C1)N2CC[C@H](NC(=O)C1CCC(F)(F)CC1)c1ccccc1` [MARAVIROC], for which the EC50 in series [6] worked out at 10.2 nM; in [7], 14.9 nM; in series [8], 19.2 nM; in series [1], 15 nM; in [9] it was 92 nM; in series [5], 2.18 nM. For the same compound, the EC50 is 1.04 nM in series [10], 2.96 nM in series [4] (setting [13]), 0.34 nM in [11] and more than 1000 nM in series [12].
For the compound `Cc1nnc(C(C)C)n1[C@@H]1C[C@H]2CC[C@@H](C1)N2CC[C@H](NC(=O)C1CCCC1)c1ccc(C#N)s1`, the EC50 in [1] was more than 200000 nM. Also, the CC50 at 48 h in series [2] is more than 200000 nM. Moreover, the IC50 in series [3] was more than 10000 nM.
In the case of `Cc1ccsc1[C@H](CCN1[C@@H]2CC[C@H]1C[C@H](n1c(C)nnc1C(C)C)C2)NC(=O)C1CCCC1`, in series [2], the cytotoxic concentration (CC50) at 48 h was more than 200000 nM. For the same compound, the half-maximal inhibitory concentration (IC50) in series [3] turned out to be 18.9 nM. Besides, in series [4] (tzm-bl), the EC50 is 29 nM and 78 nM. Besides, in the series “in vitro”, the selectivity ratio is more than 6900.
`CC(=O)Nc1cccc(C(=O)N[C@@H](CCN2[C@@H]3CC[C@H]2C[C@H](n2c(C)nnc2C(C)C)C3)c2cccs2)c1` yielded an EC50 in [1] of 3390 nM. This compound also registered a CC50 at 48 h in [2] of more than 200000 nM. Besides, the IC50 in [3] came to 40.4 nM. The selectivity ratio in the series “in vitro” was more than 59.
On to `Cc1nnc(C(C)C)n1[C@@H]1C[C@H]2CC[C@@H](C1)N2CC[C@H](NC(=O)C1CCCCC1)c1ccc(F)s1`, for which the EC50 in series [8] was 2660 nM. In series [2], this compound came in with a CC50 at 48 h of more than 200000 nM. Moreover, the concentration for half-maximal inhibition (IC50) in series [3] is 9.33 nM. Further, the selectivity ratio in “in vitro” was more than 75.2.
`Cc1csc([C@H](CCN2[C@@H]3CC[C@H]2C[C@H](n2c(C)nnc2C(C)C)C3)NC(=O)C2CCN(S(C)(=O)=O)CC2)c1` came in with a half-maximal cytotoxic concentration (CC50) at 48 h in series [2] of more than 200000 nM. In addition, in [3], the IC50 worked out at 21.5 nM. This compound returned an EC50 in series [4] (setting [13]) of 19 nM. Moreover, the selectivity ratio in the series “in vitro” is more than 10500.
Regarding `COCc1nnc(C(C)C)n1[C@@H]1C[C@H]2CC[C@@H](C1)N2CC[C@H](NC(=O)C1CCC(F)(F)CC1)c1ccsc1`, the EC50 in series [1] amounted to 30 nM. The compound further showed a half-maximal cytotoxic concentration (CC50) at 48 h in series [2] of 72900 nM. For the same compound, the half-maximal inhibitory concentration (IC50) in series [3] was 2.49 nM. The selectivity ratio in “in vitro” came to 2430.
`CC(=O)N[C@@H](CCN1[C@@H]2CC[C@H]1C[C@H](n1c(C)nnc1C(C)C)C2)c1cccs1`: the EC50 in series [8] is 1100 nM. Moreover, the CC50 at 48 h in series [2] was 40500 nM. Also, the concentration for half-maximal inhibition (IC50) in series [3] is 15 nM. In addition, in “in vitro”, the selectivity ratio is 36.8.
Regarding `Cc1nnc(C(C)C)n1[C@@H]1C[C@H]2CC[C@@H](C1)N2CC[C@H](NC(=O)C1CCC(F)(F)CC1)c1ccsc1Cl`, in series [1], the 50% effective concentration (EC50) turned out to be 540 nM. In [2], this compound displayed a cytotoxic concentration (CC50) at 48 h of more than 200000 nM. Moreover, the IC50 in [3] was determined as 5.34 nM. Moreover, in “in vitro”, the selectivity ratio is more than 370.
Consider `Cc1nnc(C(C)C)n1[C@@H]1C[C@H]2CC[C@@H](C1)N2CC[C@H](NC(=O)C1CCC(F)(F)CC1)c1ccc(C#N)s1`, for which the EC50 in [1] was more than 200000 nM. The CC50 at 48 h in [2] is more than 200000 nM. In [3], the 50% inhibitory concentration (IC50) is more than 10000 nM.
On to `COc1ccc(S(N)(=O)=O)cc1C(=O)N[C@@H](CCN1[C@@H]2CC[C@H]1C[C@H](n1c(C)nnc1C(C)C)C2)c1cccs1`, for which the EC50 in [1] is more than 200000 nM. This compound also displayed a CC50 at 48 h in series [2] of more than 200000 nM. For the same compound, the IC50 in [3] is 1380 nM.
The compound `Cc1nnc(C(C)C)n1[C@@H]1C[C@H]2CC[C@@H](C1)N2CC[C@H](NC(=O)C(F)(F)F)c1csc2ccccc12` had an EC50 in series [8] of more than 40000 nM. This compound showed a CC50 at 48 h in [2] of more than 200000 nM. In addition, in [3], the half-inhibitory concentration (IC50) was found to be 680 nM.
For `Cc1nnc(C(C)C)n1[C@H]1C[C@H]2CC[C@@H](C1)N2CC[C@H](NC(=O)C1CCCCC1)c1ccc(C#N)s1`, the EC50 in series [1] is more than 200000 nM. This compound registered a half-maximal cytotoxic concentration (CC50) at 48 h in series [2] of more than 200000 nM. Besides, the 50% inhibitory concentration (IC50) in [3] was more than 10000 nM.
